{"source": "patent US12129490B2", "about": "“Methods for generating hepatocytes and cholangiocytes from pluripotent stem cells” (UNIVERSITY HEALTH NETWORK, priority 2018, dated 2024)", "key": {"CYP2B6": {"target": "T1, CYP2B6 (Homo sapiens, UniProt P20813)", "T1 sequence (P20813 1-491)": "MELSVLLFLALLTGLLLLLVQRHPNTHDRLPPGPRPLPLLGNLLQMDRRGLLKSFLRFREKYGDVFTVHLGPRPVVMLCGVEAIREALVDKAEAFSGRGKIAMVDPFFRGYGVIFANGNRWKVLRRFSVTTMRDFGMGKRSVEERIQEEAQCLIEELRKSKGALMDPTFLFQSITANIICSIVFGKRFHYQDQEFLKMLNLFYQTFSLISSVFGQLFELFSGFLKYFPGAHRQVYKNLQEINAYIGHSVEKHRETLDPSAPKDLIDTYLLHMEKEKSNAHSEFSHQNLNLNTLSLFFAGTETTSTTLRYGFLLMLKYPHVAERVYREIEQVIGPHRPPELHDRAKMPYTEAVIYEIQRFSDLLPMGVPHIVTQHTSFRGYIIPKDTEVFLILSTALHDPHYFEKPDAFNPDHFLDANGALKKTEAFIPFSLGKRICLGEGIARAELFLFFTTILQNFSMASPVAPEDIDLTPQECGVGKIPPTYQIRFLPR", "test": "CYP2B6 activity, hydroxylation of bupropion by HPLC", "assay_type": "in vitro ADME", "conditions": "8-Br-cAMP-treated cells versus primary hepatocytes", "experimental": "Formation of the metabolite O-hydroxy-bupropion from bupropion was measured by HPLC. Activity is presented per 50,000 cells, (n=3)."}, "[1]": {"test_system": "H9- and iPSC (38-2)-derived hepatic aggregates", "experimental": "HPSCs were maintained on irradiated mouse embryonic feeder cells in hESC media consisting of DEME/F12 (50:50; Gibco) supplemented with 20% Knock-out serum replacement (KSR) as described previously^44. Prior to the generation of embryoid bodies (EBs), hESCs were passaged onto Matrigel™-coated plates for 1 day to deplete the population of feeder cells. […] At day 1, the EBs were harvested and re-cultured in induction medium A that consisted of StemPRO-34® supplemented with glutamine (2 mM), ascorbic acid ([…]; Sigma), MTG ([…]; Sigma), basic fibroblast growth factor (bFGF; 2.5 ng/ml), activin A (100 ng/ml), Wnt3a (25 ng/ml) and BMP4 (0.25 ng/ml) for 3 days. On day 4, the EBs were harvested and re-cultured in StemPRO-34® supplemented with bFGF (10 ng/ml), activin A (100 ng/ml), Wnt3a (25 ng/ml) and BMP4 (0.25 ng/ml) (medium B). EBs were harvested at day 6, dissociated to single cells and the cells cultured for 2 days on Matrigel™-coated 12 well plates at a concentration of 4×10^5 cells in media B without Wnt3A and with activin A at a concentration of 50 ng/ml. At day 8, medium B was replaced with hepatic specification media that consisted of Iscove's Modified Dulbecco's Medium (IMDM) supplement with 1% vol/vol B27 supplement (Invitrogen: A11576SA), ascorbic acid, MTG, FGF10 (50 ng/ml) (from day 8 to day 10), bFGF (20 ng/ml) (from day 10 to day 14), and BMP4 (50 ng/ml). Media was changed every 2 days from day 8 to day 14. To promote maturation of HES2-derived hepatic cells, they were cultured in maturation media A for 12 days. Maturation media A consisted of IMDM with 1% vol/vol B27 supplement, ascorbic acid, Glutamine, MTG, Hepatocyte growth factor (HGF) (20 ng/ml), Dexamethasone Dex) (40 ng/ml) and Oncostatin M (20 ng/ml). Aggregates were generated from the population at day 26 of culture. To generate aggregates the cells were dissociated with collagenase and TrypleLE and then cultured in six well ultra-low cluster dishes at a concentration of 6×10^5 cells per well in maturation medium A supplemented with Rho-kinase inhibitor and 0.1% BSA. Aggregates were maintained under these conditions until day 32, with media changes every 3 days. […] Media was changed every 3 days. To generate hepatocyte like cells from H9, H1 and IPS cells, the following changes were made to the hepatic specification media. […] All cytokines were human and purchased from R&D Systems, unless stated otherwise. EB and monolayer cultures were maintained in a 5% CO2, 5% O2, 90% N2 environment. Aggregation cultures were maintained in a 5% CO2 ambient air environment.\nTotal RNA was prepared with RNAqueous® Micro Kit (Ambion) and treated with RNase-free DNase (Ambion). 500 ng to 1 μg RNA was reverse transcribed into cDNA using random hexamers and Oligo(dT) with Superscript® III Reverse Transcriptase (Invitrogen). qPCR was performed on a MasterCycler® ep realplex (Eppendorf) using A QuentiFast SYBR Green PCR Kit (Quiagen) as described previously^45. Expression levels were normalized to the housekeeping gene TATA box binding protein (TBP). […] Total human adult and fetal liver RNA was purchased from Clontech. Two primary hepatocyte RNA samples were provided by Dr Stephen C. […] Two primary hepatocyte samples were cultured for two day and were harvested."}, "CYP1A2": {"target": "T2, CYP1A2 (Homo sapiens, UniProt P05177)", "T2 sequence (P05177 1-516)": "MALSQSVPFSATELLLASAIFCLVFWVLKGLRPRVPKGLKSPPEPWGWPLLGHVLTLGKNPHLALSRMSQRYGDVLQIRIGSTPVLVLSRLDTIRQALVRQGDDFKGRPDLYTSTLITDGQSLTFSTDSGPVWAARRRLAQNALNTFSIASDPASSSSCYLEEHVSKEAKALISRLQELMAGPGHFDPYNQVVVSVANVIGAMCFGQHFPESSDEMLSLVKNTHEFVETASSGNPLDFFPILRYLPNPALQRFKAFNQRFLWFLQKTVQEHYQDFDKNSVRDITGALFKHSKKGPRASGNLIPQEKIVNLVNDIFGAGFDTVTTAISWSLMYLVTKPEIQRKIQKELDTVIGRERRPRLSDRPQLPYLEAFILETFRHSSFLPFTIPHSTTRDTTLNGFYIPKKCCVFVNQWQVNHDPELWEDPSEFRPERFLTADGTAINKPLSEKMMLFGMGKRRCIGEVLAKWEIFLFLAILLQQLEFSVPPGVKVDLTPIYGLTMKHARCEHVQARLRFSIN", "test": "CYP1A2 activity, phenacetin metabolism by HPLC", "conditions": "8-Br-cAMP-treated cells versus primary cultured hepatocytes"}, "hepatic aggregates": {"test_system": "hepatic aggregates", "test": "Indocyanine green (ICG) uptake of hepatic aggregates", "assay_type": "cell-based, human", "conditions": "day 44 aggregates", "experimental": "The indocyanine green (ICG, Sigma) solution was added to the cells at final concentration of 1 mg/ml ICG in HCM (Lonza). The cells were incubated at 37° C. for 1 hour, washed 3 times with PBS, and then examined with an inverted Microscope (Leica)."}, "[2]": {"test_system": "UDP-glucuronosyltransferase (UGT)", "test": "Total UGT activity, 4-MU glucuronidation", "assay_type": "in vitro ADME, human", "conditions": "cAMP-treated aggregates versus primary cultured hepatocytes"}}, "data": [{"smiles": "Nc1ncnc2c1nc(Br)n2[C@@H]1O[C@@H]2COP(=O)(O)O[C@H]2[C@H]1O", "note": "[8-Br-cAMP, 8-bromoadenosine-3′5″-cyclic monophosphate]", "values": [{"measurement": "CYP2B6 activity, hydroxylation of bupropion", "setting": "CYP2B6", "value": "comparable to those found in primary hepatocytes"}, {"measurement": "expression of CYP1A2", "setting": "[1]", "value": 100, "unit": "fold"}, {"measurement": "expression of CYP2B6", "setting": "[1]", "value": 10, "unit": "fold"}, {"measurement": "expression of CYP3A4", "setting": "[1]", "value": 16, "unit": "fold"}, {"measurement": "expression of CYP3A4, CYP1A2, CYP2B6 and UGT1A1", "setting": "[1]", "value": "as high as those in primary hepatocytes"}, {"measurement": "expression of UGT1A1", "setting": "[1]; H9-derived aggregates", "value": 16, "unit": "fold"}, {"measurement": "O-deethylation of phenacetin (CYP1A2 activity)", "setting": "CYP1A2", "value": "as high as primary cultured hepatocytes"}, {"measurement": "ICG staining of aggregates", "setting": "hepatic aggregates", "value": "almost all treated aggregates stained with ICG"}, {"measurement": "UGT activity", "setting": "[2]", "value": "higher than that of primary cultured hepatocytes"}]}]}
